Measured values taken from the supplement of paper PMC13380429.

Columns and labels:
Details in all cases: 72 h
Caco-2 [1] = assay: cell viability relative to DMSO; higher = less toxic
Calu-3 [2] = assay: as above
HepG2 [3] = assay: as above
U2OS [4] = assay: as above
Vero E6 [5] = assay: as above
Caco-2 [6] = assay: relative viability EC50 (midpoint between 100% and the lowest measured viability); higher = less toxic
Calu-3 [7] = assay: as above
HepG2 [8] = assay: as above
U2OS [9] = assay: as above
Vero E6 [10] = assay: as above
Caco-2 [11] = assay: drug sensitivity score (DSS) for viability; higher = more toxic; extreme values may be limits of the assay
Calu-3 [12] = assay: as above
HepG2 [13] = assay: as above
U2OS [14] = assay: as above
Vero E6 [15] = assay: as above

Structure (SMILES)	cell viability (Caco-2 [1]; 1 nM)	cell viability (Caco-2 [1]; 10 nM)	cell viability (Caco-2 [1]; 100 nM)	cell viability (Caco-2 [1]; 1000 nM)	cell viability (Caco-2 [1]; 10000 nM)	cell viability (Calu-3 [2]; 1 nM)	cell viability (Calu-3 [2]; 10 nM)	cell viability (Calu-3 [2]; 100 nM)	cell viability (Calu-3 [2]; 1000 nM)	cell viability (Calu-3 [2]; 10000 nM)	cell viability (HepG2 [3]; 1 nM)	cell viability (HepG2 [3]; 10 nM)	cell viability (HepG2 [3]; 100 nM)	cell viability (HepG2 [3]; 1000 nM)	cell viability (HepG2 [3]; 10000 nM)	cell viability (U2OS [4]; 1 nM)	cell viability (U2OS [4]; 10 nM)	cell viability (U2OS [4]; 100 nM)	cell viability (U2OS [4]; 1000 nM)	cell viability (U2OS [4]; 10000 nM)	cell viability (Vero E6 [5]; 1 nM)	cell viability (Vero E6 [5]; 10 nM)	cell viability (Vero E6 [5]; 100 nM)	cell viability (Vero E6 [5]; 1000 nM)	cell viability (Vero E6 [5]; 10000 nM)	relative viability EC50 (Caco-2 [6])	relative viability EC50 (Calu-3 [7])	relative viability EC50 (HepG2 [8])	relative viability EC50 (U2OS [9])	relative viability EC50 (Vero E6 [10])	drug sensitivity score (Caco-2 [11])	drug sensitivity score (Calu-3 [12])	drug sensitivity score (HepG2 [13])	drug sensitivity score (U2OS [14])	drug sensitivity score (Vero E6 [15])
Cc1noc(NS(=O)(=O)c2ccc(N)cc2)c1C [sulfafurazole]	95.7%	94.2%	96.6%	94%	103%	96.2%	92.7%	105%	107%	98.1%	93%	94.3%	90.6%	102%	100%	100%	96.5%	99.5%	96%	101%	101%	96.6%	98.6%	99.2%	98.7%	> 10 µM	> 10 µM	> 10 µM	> 10 µM	> 10 µM	0	0	0	0	0
COc1ccc(CC2NCCc3cc(OC)c(OC)cc32)cc1OC (stereo not given) [tetrahydropapaverine]	99.8%	99%	99.5%	102%	94.4%	95.9%	86.9%	99.7%	83.3%	98.7%	99.1%	99.9%	91.5%	98.6%	103%	99.5%	93.2%	103%	90.9%	96.9%	94.3%	99.8%	95.3%	98.6%	104%	> 10 µM	> 10 µM	> 10 µM	> 10 µM	> 10 µM	0	0	0	0	0
CN1CCN(CCCN2c3ccccc3Sc3ccc(S(=O)(=O)N(C)C)cc32)CC1 [thioproperazine]	95.7%	93.3%	89.6%	113%	79%	98%	93.5%	105%	103%	90.9%	108%	103%	105%	99.6%	92.5%	107%	97.1%	104%	99.7%	97.9%	99.3%	95.9%	94.9%	85.2%	90.6%	> 10 µM	> 10 µM	> 10 µM	> 10 µM	> 10 µM	0.4	0	0	0	0.6
[Cl][Ti][Cl].c1cc[cH-]c1.c1cc[cH-]c1 [titanocene-dichloride]	97.7%	98.2%	99.2%	94.6%	95.8%	99.2%	97.1%	112%	97.1%	110%	89.6%	91.9%	97.2%	104%	101%	93.2%	93.1%	97.5%	94.6%	96.1%	93.7%	95.2%	93.4%	98.9%	105%	> 10 µM	> 10 µM	> 10 µM	> 10 µM	> 10 µM	0	0	0	0	0
Cc1ccc(O)c([C@H](CCN(C(C)C)C(C)C)c2ccccc2)c1 [tolterodine]	102%	89.6%	98.5%	85.9%	108%	99.7%	94.1%	88.6%	88.6%	95.8%	115%	98.5%	102%	105%	92.7%	99.9%	94.4%	99.9%	98.7%	96.1%	105%	99.8%	102%	103%	96.9%	> 10 µM	> 10 µM	> 10 µM	> 10 µM	> 10 µM	0	0.8	0	0	0
CS(=O)(=O)OC[C@H](O)[C@@H](O)COS(C)(=O)=O [treosulfan]	95.6%	96.4%	102%	90.9%	99.3%	105%	104%	102%	98.8%	111%	93.1%	93.6%	94.6%	108%	108%	104%	94.7%	103%	94%	99.2%	92.3%	100%	92.5%	98.2%	106%	> 10 µM	> 10 µM	> 10 µM	> 10 µM	> 10 µM	0	0	0	0	0
CCN(Cc1ccncc1)C(=O)C(CO)c1ccccc1 (stereo not given) [tropicamide]	86.2%	96.9%	97.2%	89.4%	101%	98.6%	90.5%	101%	95.9%	103%	106%	98%	107%	91.9%	97.8%	91.7%	98.8%	95.4%	99%	103%	94.2%	88.8%	91.8%	84.8%	102%	> 10 µM	> 10 µM	> 10 µM	> 10 µM	> 10 µM	0	0	0	0	0
O=C(CCCCCCC(=O)Nc1ccccc1)NO [vorinostat]	89.9%	99.9%	93.9%	93.9%	2.5%	96.1%	96.9%	87.2%	62.1%	20.2%	111%	98.2%	98.1%	69.8%	3%	97.4%	96.3%	94.9%	79.5%	2.2%	99.5%	99.5%	103%	88.9%	0.3%	2.66 µM	0.91 µM	1.37 µM	1.7 µM	2.25 µM	6.3	9.1	9.7	8.7	7.3
